Experimental data from patent US11566002B2, “Substituted tetrahydrocyclopenta[C]pyrroles, substituted dihydropyrrolizines, analogues thereof, and methods using same” (priority 2018, dated 2023).

These molecules were tested on HBV rcDNA (assay: HepDE19 assay with bDNA quantitation of HBV rcDNA). Conditions: HepDE19 cells, Tet-free medium, 7 day-incubation, rcDNA measured by Quantigene 2.0 bDNA assay, top concentration 25 μM; read-out: DE-19 bDNA EC50.
Format: cell-based, hepatitis B virus
Method in brief: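 HepDE19 cells (50,000/well) switched to Tet-free medium, then treated 7 days at 37° C with compounds from 25 μM (½-log, 8-point, duplicate; 0.5% DMSO). rcDNA quantified by bDNA with HBV probes; EC50/EC90 by 4-parameter fit. CC50 from CTG ATP on 5,000 cells/well after 4 days.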
With `Cn1cnc(COC(=O)NC2CCn3c(C(=O)Nc4ccc(F)c(Cl)c4)ccc32)n1` (single isomer, unassigned) [Compound 40, (1-Methyl-1H-1,2,4-triazol-3-yl)methyl (5-((3-chloro-4-fluorophenyl)carbamoyl)-2,3-dihydro-1H-pyrrolizin-1-yl)carbamate] the EC50 was 6600 nM. For `Cn1cc2c(c1C(=O)Nc1ccc(F)c(Cl)c1)CCC2NC(=O)OCc1ccccn1` (centres unmarked) [Compound 6], the EC50 was 140 nM. With `CCn1cc2c(c1C(=O)Nc1ccc(F)c(Cl)c1)CCC2NC(=O)OCc1ccn(C)n1` (single isomer, unassigned) [Compound 27, (1-Methyl-1H-pyrazol-3-yl)methyl (1-((3-chloro-4-fluorophenyl)carbamoyl)-2-ethyl-2,4,5,6-tetrahydrocyclopenta[c]pyrrol-4-yl)carbamate] the EC50 was 1500 nM. For `Cn1cc(COC(=O)NC2CCc3c2cn(C)c3C(=O)Nc2ccc(F)c(Cl)c2)nn1` (single isomer, unassigned) [Compound 117, (1-Methyl-1H-1,2,3-triazol-4-yl)methyl (1-((3-chloro-4-fluorophenyl)carbamoyl)-2-methyl-2,4,5,6-tetrahydrocyclopenta[c]pyrrol-4-yl)carbamate], the EC50 was 6100 nM. `C#CCOC(=O)NC1CCc2c1cn(C)c2C(=O)Nc1ccc(F)c(Cl)c1` (single isomer, unassigned) [Compound 102, Prop-2-yn-1-yl (1-((3-chloro-4-fluorophenyl)carbamoyl)-2-methyl-2,4,5,6-tetrahydrocyclopenta[c]pyrrol-4-yl)carbamate] showed an EC50 of 20 nM. `CCn1cc2c(c1C(=O)Nc1ccc(F)c(Cl)c1)CCC2NS(=O)(=O)C1CC1` (single isomer, unassigned) [Compound 15, N-(3-Chloro-4-fluorophenyl)-4-(cyclopropanesulfonamido)-2-ethyl-2,4,5,6-tetrahydrocyclopenta[c]pyrrole-1-carboxamide] was tested, and the EC50 was no less than 25000 nM. Work on `CCn1cc2c(c1C(=O)Nc1ccc(F)c(Cl)c1)CCC2NC(=O)OCc1ncn(C)n1` (single isomer, unassigned) [Compound 20, (1-Methyl-1H-1,2,4-triazol-3-yl)methyl (1-((3-chloro-4-fluorophenyl)carbamoyl)-2-ethyl-2,4,5,6-tetrahydrocyclopenta[c]pyrrol-4-yl)carbamate] yielded an EC50 of 180 nM. Work on `Cn1cnc(COC(=O)NC2CCCCc3c2cn(C)c3C(=O)Nc2ccc(F)c(Cl)c2)n1` (single isomer, unassigned) [Compound 86, (1-Methyl-1H-1,2,4-triazol-3-yl)methyl (1-((3-chloro-4-fluorophenyl)carbamoyl)-2-methyl-2,4,5,6,7,8-hexahydrocyclohepta[c]pyrrol-4-yl)carbamate] yielded an EC50 of 160 nM. Work on `Cn1cnc(COC(=O)NC2CCc3c2c(C(F)(F)F)n(C)c3C(=O)Nc2ccc(F)c(Cl)c2)n1` (centres unmarked) [Compound 123] yielded an EC50 of 8000 nM. `CCn1cc2c(c1C(=O)Nc1ccc(F)c(Cl)c1)CCC2NC(=O)OCc1ncn(C)n1` (single isomer, unassigned) [Compound 19, (1-Methyl-1H-1,2,4-triazol-3-yl)methyl (1-((3-chloro-4-fluorophenyl)carbamoyl)-2-ethyl-2,4,5,6-tetrahydrocyclopenta[c]pyrrol-4-yl)carbamate] gave an EC50 of 2100 nM. `CNC(=O)NC1CCc2c1c[nH]c2C(=O)Nc1ccc(F)c(Cl)c1` (single isomer, unassigned) [Compound 10, N-(3-Chloro-4-fluorophenyl)-4-(3-methylureido)-2,4,5,6-tetrahydrocyclopenta[c]pyrrole-1-carboxamide] was tested, and the EC50 was 16000 nM. For `Cn1cc2c(c1C(=O)Nc1ccc(F)c(Cl)c1)CCC2NC(=O)C1CC1` (single isomer, unassigned) [Compound 24, N-(3-Chloro-4-fluorophenyl)-4-(cyclopropanecarboxamido)-2-methyl-2,4,5,6-tetrahydrocyclopenta [c]pyrrole-1-carboxamide], the EC50 was 1600 nM. `Cn1cc2c(c1C(=O)Nc1ccc(F)c(Cl)c1)CCC2NC(=O)OCCC#N` (single isomer, unassigned) [Compound 50, 2-Cyanoethyl (1-((3-chloro-4-fluorophenyl)carbamoyl)-2-methyl-2,4,5,6-tetrahydrocyclopenta[c]pyrrol-4-yl)carbamate] gave an EC50 of 3000 nM.

Same assay, conditions: Hepatitis B virus, HepDE19, 168 h, HepDE19 cells, Tet-free medium, 7 day-incubation, rcDNA measured by Quantigene 2.0 bDNA assay, top concentration 25 μM; read-out: DE-19 bDNA EC50
Molecule `Cn1cnc(COC(=O)NC2CCc3c2cn(C)c3C(=O)Nc2ccnc(C(F)F)c2)n1` (single isomer, unassigned) [Compound 81, (1-methyl-1H-1,2,4-triazol-3-yl)methyl (1-((2-(difluoromethyl)pyridin-4-yl)carbamoyl)-2-methyl-2,4,5,6-tetrahydrocyclopenta[c]pyrrol-4-yl)carbamate] has an EC50 of 600 nM. Work on `Cn1c(C(=O)Nc2ccc(F)c(Cl)c2)c2c(c1C1CC1)C(NC(=O)OCc1nc[nH]n1)CC2` (centres unmarked) [Compound 95, (1H-1,2,4-triazol-3-yl)methyl (1-((3-chloro-4-fluorophenyl)carbamoy1)-3-cyclopropy1-2-methyl-2,4,5,6-tetrahydrocyclopenta[c]pyrrol-4-yl)carbamate] yielded an EC50 of 15000 nM. With `Cn1cc2c(c1C(=O)Nc1ccc(F)c(Cl)c1)CCCCC2N` (centres unmarked) [Compound 80, 4-Amino-N-(3-chloro-4-fluorophenyl)-2-methyl-2,4,5,6,7,8-hexahydro cyclohepta[c]pyrrole-1-carboxamide] the EC50 was 1850 nM. Molecule `Cn1ccc(COC(=O)NC2CCCc3c2cn(C)c3C(=O)Nc2ccc(F)c(Cl)c2)n1` (single isomer, unassigned) [Compound 31, (1-Methyl-1H-pyrazol-3-yl)methyl (1-((3-chloro-4-fluorophenyl)carbamoyl)-2-methyl-4,5,6,7-tetrahydro-2H-isoindol-4-yl)carbamate] has an EC50 of 500 nM. With `Cn1cnc(COC(=O)NC2CCc3c2cn(C)c3C(=O)Nc2ccc(F)c(C(F)(F)F)c2)n1` (single isomer, unassigned) [Compound 69, (1-Methyl-1H-1,2,4-triazol-3-yl)methyl (1-((4-fluoro-3-(trifluoromethyl)phenyl)carbamoyl)-2-methyl-2,4,5,6-tetrahydrocyclopenta[c]pyrrol-4-yl)carbamate] the EC50 was 280 nM. `Cn1cc2c(c1C(=O)Nc1ccc(F)c(Cl)c1)CCCC2N` (single isomer, unassigned) [Compound 75, 4-Amino-N-(3-chloro-4-fluorophenyl)-2-methyl-4,5,6,7-tetrahydro-2H-isoindole-1-carboxamide] gave an EC50 of 2100 nM. Work on `Cn1cc2c(c1C(=O)Nc1ccc(F)c(Cl)c1)CCC2NC(=O)OCc1nnnn1C` (single isomer, unassigned) [Compound 145, (1-Methyl-1H-tetrazol-5-yl)methyl (1-((3-chloro-4-fluorophenyl)carbamoyl)-2-methyl-2,4,5,6-tetrahydrocyclopenta[c]pyrrol-4-yl)carbamate] yielded an EC50 of 2700 nM. `Cn1cc2c(c1C(=O)Nc1ccc(F)c(Cl)c1)CCCC2=O` [Compound 45, N-(3-chloro-4-fluorophenyl)-2-methyl-4-oxo-4,5,6,7-tetrahydro-2H-isoindole-1-carboxamide] showed an EC50 of 70 nM. `Cn1cnc(COC(=O)NC2CCc3c2cn(C)c3C(=O)Nc2ccc(F)c(F)c2)n1` (single isomer, unassigned) [Compound 64, (1-methyl-1H-1,2,4-triazol-3-yl)methyl (1-((3,4-difluorophenyl)carbamoyl)-2-methyl-2,4,5,6-tetrahydrocyclopenta[c]pyrrol-4-yl)carbamate] gave an EC50 of 410 nM. Work on `CC(C)OC(=O)C1(COC(=O)NC2CCc3c2cn(C)c3C(=O)Nc2ccc(F)c(Cl)c2)CC(F)(F)C1` (racemic) [Compound 46, isopropyl 1-((((1-((3-chloro-4-fluorophenyl)carbamoyl)-2-methyl-2,4,5,6-tetrahydrocyclopenta[c]pyrrol-4-yl)carbamoyl)oxy)methyl)-3,3-difluorocyclobutane-1-carboxylate] yielded an EC50 of 2300 nM. `CCn1cc2c(c1C(=O)Nc1ccc(F)c(Cl)c1)CCC2NC(=O)C1CC1` (centres unmarked) [Compound 18, N-(3-Chloro-4-fluorophenyl)-4-(cyclopropanecarboxamido)-2-ethyl-2,4,5,6-tetrahydro cyclopenta[c]pyrrole-1-carboxamide] showed an EC50 of 350 nM. `COC(=O)NC1CCc2c1c[nH]c2C(=O)Nc1ccc(F)c(Cl)c1` (centres unmarked) [Compound 9, methyl 1-(3-chloro-4-fluorophenylcarbamoyl)-2,4,5,6-tetrahydrocyclopenta[c]pyrrol-4-ylcarbamate] gave an EC50 of 3000 nM. For `CCn1cc2c(c1C(=O)Nc1ccc(F)c(Cl)c1)CCC2NS(=O)(=O)C1CC1` (centres unmarked) [Compound 12, N-(3-Chloro-4-fluorophenyl)-4-(cyclopropanesulfonamido)-2-ethyl-2,4,5,6-tetrahydrocyclopenta[c]pyrrole-1-carboxamide], the EC50 was 260 nM.

Same assay, conditions: read-out: DE-19 bDNA EC50; HepDE19 cells, Tet-free medium, 7 day-incubation, rcDNA measured by Quantigene 2.0 bDNA assay, top concentration 25 μM
`COC(=O)NC1CCCCc2c1cn(C)c2C(=O)Nc1ccc(F)c(Cl)c1` (single isomer, unassigned) [Compound 79, Methyl (1-((3-chloro-4-fluorophenyl)carbamoyl)-2-methyl-2,4,5,6,7,8-hexahydrocyclohepta[c]pyrrol-4-yl)carbamate] gave an EC50 of 730 nM. With `Cn1cc2c(c1C(=O)Nc1ccc(F)c(Cl)c1)CCC2NC(=O)OCc1nnnn1C` (single isomer, unassigned) [Compound 144, (1-Methyl-1H-tetrazol-5-yl)methyl(1-((3-chloro-4-fluorophenyl)carbamoyl)-2-methyl-2,4,5,6-tetrahydrocyclopenta[c]pyrrol-4-yl)carbamate] the EC50 was 60 nM. For `CCc1n[nH]nc1COC(=O)NC1CCc2c1cn(C)c2C(=O)Nc1ccc(F)c(Cl)c1` (single isomer, unassigned) [Compound 141, (5-Ethyl-2H-1,2,3-triazol-4-yl)methyl(1-((3-chloro-4-fluorophenyl)carbamoyl)-2-methyl-2,4,5,6-tetrahydrocyclopenta[c]pyrrol-4-yl)carbamate], the EC50 was 1200 nM.
